ChEMBL document CHEMBL3739345, “Design and synthesis of potent and selective inhibitors of BRD7 and BRD9 bromodomains” (Medchemcomm, 2015)
Calls of active or inactive are those of the source. The rule behind the calls is not given here.

Columns and labels:
Peregrin (Homo sapiens) = molecular target: T1, Peregrin (Homo sapiens) (UniProt P55201); test: Binding affinity to human BRPF1B assessed as change in melting temperature at 10 uM by differential scanning fluorimetry
T1 sequence (whole entry): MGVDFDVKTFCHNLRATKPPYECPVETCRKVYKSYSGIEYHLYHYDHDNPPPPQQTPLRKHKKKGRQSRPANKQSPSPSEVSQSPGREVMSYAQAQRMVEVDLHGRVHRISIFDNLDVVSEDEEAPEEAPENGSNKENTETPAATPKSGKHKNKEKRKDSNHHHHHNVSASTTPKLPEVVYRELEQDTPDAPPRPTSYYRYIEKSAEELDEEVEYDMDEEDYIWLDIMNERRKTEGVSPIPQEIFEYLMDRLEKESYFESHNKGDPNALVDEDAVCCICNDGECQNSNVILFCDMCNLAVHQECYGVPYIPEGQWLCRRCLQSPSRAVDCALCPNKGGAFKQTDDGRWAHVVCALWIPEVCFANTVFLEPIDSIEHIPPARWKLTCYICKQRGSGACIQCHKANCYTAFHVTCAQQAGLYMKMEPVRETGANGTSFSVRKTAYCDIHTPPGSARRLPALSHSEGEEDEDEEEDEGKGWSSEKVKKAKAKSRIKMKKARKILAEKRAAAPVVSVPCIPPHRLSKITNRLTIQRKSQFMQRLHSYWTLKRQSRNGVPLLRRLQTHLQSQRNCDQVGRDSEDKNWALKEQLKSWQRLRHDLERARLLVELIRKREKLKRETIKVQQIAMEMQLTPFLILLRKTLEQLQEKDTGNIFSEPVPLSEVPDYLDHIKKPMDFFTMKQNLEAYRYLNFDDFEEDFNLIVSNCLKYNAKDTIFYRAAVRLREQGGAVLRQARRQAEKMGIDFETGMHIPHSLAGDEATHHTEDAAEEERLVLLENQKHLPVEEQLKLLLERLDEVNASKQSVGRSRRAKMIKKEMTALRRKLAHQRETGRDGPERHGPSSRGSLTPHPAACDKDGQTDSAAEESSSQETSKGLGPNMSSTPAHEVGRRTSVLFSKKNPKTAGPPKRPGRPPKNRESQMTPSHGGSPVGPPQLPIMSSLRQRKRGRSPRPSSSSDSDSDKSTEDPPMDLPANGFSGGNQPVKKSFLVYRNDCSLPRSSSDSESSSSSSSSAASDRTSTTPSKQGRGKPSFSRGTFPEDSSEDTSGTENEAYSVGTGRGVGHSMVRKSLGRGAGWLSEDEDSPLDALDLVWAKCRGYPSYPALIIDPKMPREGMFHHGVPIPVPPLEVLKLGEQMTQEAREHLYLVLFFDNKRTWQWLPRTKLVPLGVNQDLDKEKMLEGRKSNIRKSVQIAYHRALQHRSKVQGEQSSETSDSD

[1] = molecular target: T2, Bromodomain-containing protein 9 (Homo sapiens) (UniProt Q9H8M2); test: Binding affinity to human BRD9 assessed as change in melting temperature at 10 uM by differential scanning fluorimetry
T2 sequence (whole entry): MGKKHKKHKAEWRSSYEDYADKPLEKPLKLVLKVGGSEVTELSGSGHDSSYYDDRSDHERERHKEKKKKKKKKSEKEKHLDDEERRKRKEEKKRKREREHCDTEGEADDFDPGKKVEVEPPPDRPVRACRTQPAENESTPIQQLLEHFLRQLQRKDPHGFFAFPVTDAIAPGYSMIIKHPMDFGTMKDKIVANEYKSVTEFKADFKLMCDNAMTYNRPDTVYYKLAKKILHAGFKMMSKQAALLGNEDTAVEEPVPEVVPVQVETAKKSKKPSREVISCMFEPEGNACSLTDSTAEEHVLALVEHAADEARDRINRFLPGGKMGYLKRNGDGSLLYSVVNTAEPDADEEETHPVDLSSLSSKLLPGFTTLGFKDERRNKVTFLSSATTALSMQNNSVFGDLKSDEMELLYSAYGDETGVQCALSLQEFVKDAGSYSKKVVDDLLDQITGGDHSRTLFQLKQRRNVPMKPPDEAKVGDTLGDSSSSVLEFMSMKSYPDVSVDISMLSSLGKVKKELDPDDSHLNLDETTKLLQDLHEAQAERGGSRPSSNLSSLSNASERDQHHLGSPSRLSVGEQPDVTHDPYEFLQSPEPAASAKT

[2] = molecular target: T3, Bromodomain adjacent to zinc finger domain protein 2B (Homo sapiens, UniProt Q9UIF8); test: Binding affinity to human BAZ2B at 10 uM by differential scanning fluorimetry
T3 sequence (Q9UIF8 whole entry, the tested form may be a part): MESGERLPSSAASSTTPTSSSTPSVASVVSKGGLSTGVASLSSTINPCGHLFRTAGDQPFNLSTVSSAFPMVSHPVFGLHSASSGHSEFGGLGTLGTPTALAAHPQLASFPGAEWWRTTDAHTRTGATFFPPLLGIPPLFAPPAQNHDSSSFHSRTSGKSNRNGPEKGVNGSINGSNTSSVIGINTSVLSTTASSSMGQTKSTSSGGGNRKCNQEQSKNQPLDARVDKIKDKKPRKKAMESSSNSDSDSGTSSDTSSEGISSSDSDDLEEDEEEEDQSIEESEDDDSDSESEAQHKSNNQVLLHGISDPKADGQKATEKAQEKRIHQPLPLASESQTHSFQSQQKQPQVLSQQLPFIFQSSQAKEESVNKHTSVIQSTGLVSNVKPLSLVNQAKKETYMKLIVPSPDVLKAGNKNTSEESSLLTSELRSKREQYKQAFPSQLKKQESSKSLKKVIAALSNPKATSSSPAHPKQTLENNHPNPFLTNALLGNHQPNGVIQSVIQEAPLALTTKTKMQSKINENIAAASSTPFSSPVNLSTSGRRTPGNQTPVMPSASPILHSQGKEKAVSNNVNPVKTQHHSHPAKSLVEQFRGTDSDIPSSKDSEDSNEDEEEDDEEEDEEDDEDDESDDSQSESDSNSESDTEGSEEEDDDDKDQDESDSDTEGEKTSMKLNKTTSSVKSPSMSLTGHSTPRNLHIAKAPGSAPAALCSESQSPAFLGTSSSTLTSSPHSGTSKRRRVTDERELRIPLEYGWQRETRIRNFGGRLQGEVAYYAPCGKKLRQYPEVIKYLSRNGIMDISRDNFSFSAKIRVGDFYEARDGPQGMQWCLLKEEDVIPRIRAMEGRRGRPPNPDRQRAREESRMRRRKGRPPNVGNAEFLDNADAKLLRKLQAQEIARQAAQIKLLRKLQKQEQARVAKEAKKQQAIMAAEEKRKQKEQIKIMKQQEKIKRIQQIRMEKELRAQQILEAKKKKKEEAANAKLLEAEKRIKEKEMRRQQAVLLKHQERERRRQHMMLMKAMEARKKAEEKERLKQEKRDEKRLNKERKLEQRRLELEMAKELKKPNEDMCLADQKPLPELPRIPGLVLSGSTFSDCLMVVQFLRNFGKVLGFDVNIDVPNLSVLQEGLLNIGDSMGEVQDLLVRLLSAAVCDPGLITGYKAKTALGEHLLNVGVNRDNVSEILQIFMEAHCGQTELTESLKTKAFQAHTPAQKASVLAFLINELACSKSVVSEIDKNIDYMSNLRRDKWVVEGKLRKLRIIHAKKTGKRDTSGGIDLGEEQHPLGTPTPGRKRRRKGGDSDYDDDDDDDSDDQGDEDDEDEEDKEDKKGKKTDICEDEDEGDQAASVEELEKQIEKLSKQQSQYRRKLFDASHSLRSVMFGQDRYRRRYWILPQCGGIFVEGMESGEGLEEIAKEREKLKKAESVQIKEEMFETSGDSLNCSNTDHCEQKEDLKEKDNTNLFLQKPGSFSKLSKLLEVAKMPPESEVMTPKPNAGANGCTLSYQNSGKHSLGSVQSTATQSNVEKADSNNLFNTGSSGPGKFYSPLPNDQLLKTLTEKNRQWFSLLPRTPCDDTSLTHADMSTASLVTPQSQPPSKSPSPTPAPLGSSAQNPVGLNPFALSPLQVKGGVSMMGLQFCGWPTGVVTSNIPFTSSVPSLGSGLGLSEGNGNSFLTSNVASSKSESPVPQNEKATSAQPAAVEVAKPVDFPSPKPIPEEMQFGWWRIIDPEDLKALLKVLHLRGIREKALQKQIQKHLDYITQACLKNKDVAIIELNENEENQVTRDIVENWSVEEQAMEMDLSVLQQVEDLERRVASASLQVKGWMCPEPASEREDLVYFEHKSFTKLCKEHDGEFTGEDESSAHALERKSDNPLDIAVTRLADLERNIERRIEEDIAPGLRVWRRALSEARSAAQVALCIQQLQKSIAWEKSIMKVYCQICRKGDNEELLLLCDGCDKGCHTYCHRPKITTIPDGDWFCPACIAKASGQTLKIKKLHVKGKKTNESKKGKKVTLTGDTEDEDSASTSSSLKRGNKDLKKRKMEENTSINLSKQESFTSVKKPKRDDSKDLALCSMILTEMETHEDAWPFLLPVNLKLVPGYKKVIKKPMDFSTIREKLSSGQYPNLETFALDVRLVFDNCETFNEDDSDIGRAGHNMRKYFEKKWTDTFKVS

[3] = molecular target: Bromodomain adjacent to zinc finger domain protein 2A (Homo sapiens) (UniProt Q9UIF9); test: Binding affinity to human BAZ2A at 10 uM by differential scanning fluorimetry
Chain of Bromodomain adjacent to zinc finger domain protein 2A (Homo sapiens) (Q9UIF9 whole entry, the tested form may be a part): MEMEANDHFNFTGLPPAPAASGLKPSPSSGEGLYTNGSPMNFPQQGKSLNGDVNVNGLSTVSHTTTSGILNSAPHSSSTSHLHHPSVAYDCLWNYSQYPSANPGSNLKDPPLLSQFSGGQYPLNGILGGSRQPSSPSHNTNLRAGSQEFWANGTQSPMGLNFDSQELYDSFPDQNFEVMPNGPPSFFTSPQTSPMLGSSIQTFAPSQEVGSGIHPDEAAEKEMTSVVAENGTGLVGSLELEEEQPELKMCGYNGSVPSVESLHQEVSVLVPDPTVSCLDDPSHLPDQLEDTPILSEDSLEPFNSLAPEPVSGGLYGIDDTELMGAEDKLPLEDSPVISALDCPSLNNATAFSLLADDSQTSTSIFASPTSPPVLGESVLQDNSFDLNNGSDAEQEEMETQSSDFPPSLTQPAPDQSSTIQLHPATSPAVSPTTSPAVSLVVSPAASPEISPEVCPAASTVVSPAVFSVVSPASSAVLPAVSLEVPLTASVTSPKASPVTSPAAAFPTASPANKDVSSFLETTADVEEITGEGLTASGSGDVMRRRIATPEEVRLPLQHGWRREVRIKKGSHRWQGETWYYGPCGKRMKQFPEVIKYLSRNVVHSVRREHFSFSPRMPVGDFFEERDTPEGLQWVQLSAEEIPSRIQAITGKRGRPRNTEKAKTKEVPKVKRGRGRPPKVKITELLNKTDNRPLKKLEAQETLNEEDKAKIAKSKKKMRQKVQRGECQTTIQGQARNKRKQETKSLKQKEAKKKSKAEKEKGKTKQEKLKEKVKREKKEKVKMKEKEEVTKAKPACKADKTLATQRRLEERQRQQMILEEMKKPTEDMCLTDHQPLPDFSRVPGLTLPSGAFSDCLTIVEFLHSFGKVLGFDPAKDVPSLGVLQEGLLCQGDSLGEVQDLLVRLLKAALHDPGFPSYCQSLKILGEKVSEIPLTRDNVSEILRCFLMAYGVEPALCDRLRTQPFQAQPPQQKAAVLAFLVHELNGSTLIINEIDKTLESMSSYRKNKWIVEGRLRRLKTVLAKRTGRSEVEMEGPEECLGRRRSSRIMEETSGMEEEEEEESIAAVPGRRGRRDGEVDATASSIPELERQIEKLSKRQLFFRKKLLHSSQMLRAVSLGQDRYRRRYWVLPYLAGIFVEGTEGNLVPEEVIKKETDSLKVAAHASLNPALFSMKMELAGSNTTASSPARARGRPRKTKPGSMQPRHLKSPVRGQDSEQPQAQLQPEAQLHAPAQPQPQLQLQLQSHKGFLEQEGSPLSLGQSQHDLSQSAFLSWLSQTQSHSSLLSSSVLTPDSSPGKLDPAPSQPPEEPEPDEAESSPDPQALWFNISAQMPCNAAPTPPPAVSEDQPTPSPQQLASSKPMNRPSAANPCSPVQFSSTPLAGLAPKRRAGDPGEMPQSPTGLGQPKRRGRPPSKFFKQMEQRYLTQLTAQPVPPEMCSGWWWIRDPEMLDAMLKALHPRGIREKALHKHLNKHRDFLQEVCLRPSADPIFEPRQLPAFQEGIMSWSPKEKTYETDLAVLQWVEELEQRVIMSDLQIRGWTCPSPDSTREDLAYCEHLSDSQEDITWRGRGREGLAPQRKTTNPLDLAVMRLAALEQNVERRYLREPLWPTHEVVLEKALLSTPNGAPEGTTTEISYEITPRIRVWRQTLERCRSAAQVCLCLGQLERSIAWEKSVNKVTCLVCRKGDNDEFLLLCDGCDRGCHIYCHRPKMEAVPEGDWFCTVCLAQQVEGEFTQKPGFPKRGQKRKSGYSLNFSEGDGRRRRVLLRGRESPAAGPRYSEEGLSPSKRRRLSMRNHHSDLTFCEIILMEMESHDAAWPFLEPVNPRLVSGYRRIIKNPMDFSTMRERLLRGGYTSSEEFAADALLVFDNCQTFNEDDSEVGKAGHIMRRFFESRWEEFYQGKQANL

[4] = molecular target: T4, Bromodomain-containing protein 9 (Homo sapiens, UniProt Q9H8M2); test: Binding affinity to human BRD9 by isothermal titration calorimetry
T4 sequence (Q9H8M2 whole entry): T2 sequence (whole entry)

[5] = molecular target: T3, Bromodomain adjacent to zinc finger domain protein 2B; test: Inhibition of human BAZ2B by alpha screen assay

CC(=O)c1cc(-c2cccc3nccn23)c2cc(N3CCOCC3)ccn12
ΔTm (Peregrin (Homo sapiens)): 1.7 °C
ΔTm [1]: 4.5 °C
Activity [2]: Active
Activity [3]: Active
Kd [4]: 68 nM
IC50 [5]: > 100 µM
